Measured values: paper PMC10886839, “Electrochemical DNA Cleavage Sensing for EcoRV Activity and Inhibition with an ERGO Electrode” (Biosensors, 2024)

Biological target: T1, EcoRV (Escherichia coli, UniProt P04390)
T1 construct: gene ecoRVR; restriction endonuclease, dosed in U/mL; homodimer (known biology)
T1 sequence (P04390 2-245): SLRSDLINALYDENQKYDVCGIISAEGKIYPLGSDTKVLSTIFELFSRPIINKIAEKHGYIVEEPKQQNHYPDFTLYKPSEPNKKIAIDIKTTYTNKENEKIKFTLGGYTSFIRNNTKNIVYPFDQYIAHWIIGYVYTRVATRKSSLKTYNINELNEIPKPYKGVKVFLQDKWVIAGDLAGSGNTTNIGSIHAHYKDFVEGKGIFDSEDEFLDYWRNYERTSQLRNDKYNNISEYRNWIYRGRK
Assay: electrochemical DNA cleavage assay (DPV of methylene blue-labelled DNA on ERGO electrode)
Type: biochemical

O=C(O)C1=CC(=C(c2ccc(O)c(C(=O)O)c2)c2ccc(O)c(C(=O)O)c2)C=CC1=O [ATA, aurintricarboxylic acid]
IC50: 96 nM
